Reference: PubChem BioAssay (NCI)
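Interpolation was linear, between the two tested concentrations surrounding the appropriate level; five concentrations were tested over 48 hours in 96-well plates. GI50 is the concentration that inhibits growth by half. TGI: total growth inhibition.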

Legend:
Assay in all cases: growth of human tumour cells (NCI), 48 h
HCC-2998 colon = tested on: HCC-2998 colon
HT29 colon = tested on: HT29 colon
SF-539 CNS = tested on: SF-539 CNS
U251 CNS = tested on: U251 CNS
SK-OV-3 ovarian = tested on: SK-OV-3 ovarian
K-562 leukemia = tested on: K-562 leukemia
SF-295 CNS = tested on: SF-295 CNS
HOP-92 NSCLC = tested on: HOP-92 NSCLC
LOX IMVI melanoma = tested on: LOX IMVI melanoma
MDA-MB-231 breast = tested on: MDA-MB-231 breast
BT-549 breast = tested on: BT-549 breast
T-47D breast = tested on: T-47D breast
UACC-62 melanoma = tested on: UACC-62 melanoma
SK-MEL-2 melanoma = tested on: SK-MEL-2 melanoma
SF-268 CNS = tested on: SF-268 CNS
RPMI-8226 leukemia = tested on: RPMI-8226 leukemia
NCI/ADR-RES ovarian = tested on: NCI/ADR-RES ovarian
A498 renal = tested on: A498 renal
TK-10 renal = tested on: TK-10 renal
MOLT-4 leukemia = tested on: MOLT-4 leukemia
CCRF-CEM leukemia = tested on: CCRF-CEM leukemia
SK-MEL-28 melanoma = tested on: SK-MEL-28 melanoma
OVCAR-5 ovarian = tested on: OVCAR-5 ovarian
IGROV1 ovarian = tested on: IGROV1 ovarian
MCF7 breast = tested on: MCF7 breast
SNB-19 CNS = tested on: SNB-19 CNS
HL-60(TB) leukemia = tested on: HL-60(TB) leukemia
SR leukemia = tested on: SR leukemia
SK-MEL-5 melanoma = tested on: SK-MEL-5 melanoma
KM12 colon = tested on: KM12 colon
RXF 393 renal = tested on: RXF 393 renal
UACC-257 melanoma = tested on: UACC-257 melanoma
OVCAR-3 ovarian = tested on: OVCAR-3 ovarian
SN12C renal = tested on: SN12C renal
NCI-H23 lung = tested on: NCI-H23 lung
NCI-H460 lung = tested on: NCI-H460 lung
HCT-116 colon = tested on: HCT-116 colon
SNB-75 CNS = tested on: SNB-75 CNS
NCI-H522 lung = tested on: NCI-H522 lung
A549 NSCLC = tested on: A549 NSCLC
EKVX NSCLC = tested on: EKVX NSCLC
HCT-15 colon = tested on: HCT-15 colon
ACHN renal = tested on: ACHN renal
OVCAR-8 ovarian = tested on: OVCAR-8 ovarian
COLO 205 colon = tested on: COLO 205 colon
PC-3 prostate = tested on: PC-3 prostate
UO-31 renal = tested on: UO-31 renal
M14 melanoma = tested on: M14 melanoma
NCI-H226 lung = tested on: NCI-H226 lung
786-0 renal = tested on: 786-0 renal
HS 578T breast = tested on: HS 578T breast
DU-145 prostate = tested on: DU-145 prostate
CAKI-1 renal = tested on: CAKI-1 renal
SW-620 colon = tested on: SW-620 colon
MDA-MB-435 = tested on: MDA-MB-435
MALME-3M melanoma = tested on: MALME-3M melanoma
HOP-62 NSCLC = tested on: HOP-62 NSCLC
OVCAR-4 ovarian = tested on: OVCAR-4 ovarian

## CN1CCN(Cc2ccc(NC(=O)c3cncc(C#Cc4cncc5ncccc45)c3)cc2C(F)(F)F)CC1
HCC-2998 colon
  GI50: 2.46 µM
  TGI: 17.6 µM
HT29 colon
  GI50: 1.04 µM
  TGI: 11.9 µM
SF-539 CNS
  GI50: 0.829 µM
  TGI: 2.96 µM
U251 CNS
  GI50: 9.49 µM
  TGI: 21.8 µM
SK-OV-3 ovarian
  GI50: 2.89 µM
  TGI: 11.3 µM
K-562 leukemia
  TGI: 11.4 µM
SF-295 CNS
  GI50: 3.72 µM
  TGI: 15.8 µM
HOP-92 NSCLC
  GI50: 1.16 µM
  TGI: 4.92 µM
LOX IMVI melanoma
  GI50: 0.794 µM
  TGI: 2.11 µM
MDA-MB-231 breast
  GI50: 1.07 µM
  TGI: 3.05 µM
BT-549 breast
  GI50: 7.9 µM
  TGI: 20.4 µM
T-47D breast
  GI50: 10.9 µM
  TGI: 27.3 µM
UACC-62 melanoma
  GI50: 1.67 µM
  TGI: 9.52 µM
SK-MEL-2 melanoma
  GI50: 0.542 µM
  TGI: 2.48 µM
SF-268 CNS
  GI50: 3.99 µM
  TGI: 17.6 µM
RPMI-8226 leukemia
  GI50: 3.59 µM
  TGI: 22.2 µM
NCI/ADR-RES ovarian
  GI50: 5.34 µM
  TGI: 18.9 µM
A498 renal
  GI50: 0.323 µM
  TGI: 3.43 µM
TK-10 renal
  GI50: 4.18 µM
  TGI: 15.4 µM
MOLT-4 leukemia
  GI50: 1.18 µM
  TGI: 16 µM
CCRF-CEM leukemia
  GI50: 3.27 µM
  TGI: 34.8 µM
SK-MEL-28 melanoma
  GI50: 1.23 µM
  TGI: 10.7 µM
OVCAR-5 ovarian
  GI50: 1.8 µM
  TGI: 14 µM
IGROV1 ovarian
  GI50: 1.16 µM
  TGI: 7.45 µM
MCF7 breast
  GI50: 3.28 µM
  TGI: 15.7 µM
SNB-19 CNS
  GI50: 10.5 µM
  TGI: 22.3 µM
HL-60(TB) leukemia
  GI50: 0.303 µM
  TGI: 2.02 µM
SR leukemia
  GI50: 3.23 µM
  TGI: 34.6 µM
SK-MEL-5 melanoma
  GI50: 2.95 µM
  TGI: 13.6 µM
KM12 colon
  GI50: 0.0444 µM
  TGI: 11.7 µM
RXF 393 renal
  GI50: 1.77 µM
  TGI: 6.46 µM
UACC-257 melanoma
  GI50: 2.47 µM
  TGI: 12.4 µM
OVCAR-3 ovarian
  GI50: 6.32 µM
  TGI: 19.2 µM
SN12C renal
  GI50: 2.59 µM
  TGI: 11.8 µM
NCI-H23 lung
  GI50: 1.54 µM
  TGI: 12.2 µM
NCI-H460 lung
  GI50: 2.5 µM
  TGI: 11.8 µM
HCT-116 colon
  GI50: 1.26 µM
  TGI: 11.5 µM
SNB-75 CNS
  GI50: 5.83 µM
  TGI: 18.8 µM
NCI-H522 lung
  GI50: 3.11 µM
  TGI: 17 µM
A549 NSCLC
  GI50: 3.86 µM
  TGI: 15.5 µM
EKVX NSCLC
  GI50: 3.91 µM
  TGI: 16.8 µM
HCT-15 colon
  GI50: 3.9 µM
  TGI: 14.7 µM
ACHN renal
  GI50: 1.36 µM
  TGI: 10.5 µM
OVCAR-8 ovarian
  GI50: 4.53 µM
  TGI: 18.3 µM
COLO 205 colon
  GI50: 1.11 µM
  TGI: 13.2 µM
PC-3 prostate
  GI50: 5.5 µM
  TGI: 24 µM
UO-31 renal
  GI50: 1.25 µM
  TGI: 6.35 µM
M14 melanoma
  GI50: 0.961 µM
  TGI: 5.09 µM
NCI-H226 lung
  GI50: 0.467 µM
  TGI: 11.8 µM
786-0 renal
  GI50: 9.81 µM
  TGI: 22.2 µM
HS 578T breast
  GI50: 1.36 µM
  TGI: 7.93 µM
DU-145 prostate
  GI50: 4.64 µM
  TGI: 16.8 µM
CAKI-1 renal
  GI50: 4.74 µM
  TGI: 16.4 µM
SW-620 colon
  GI50: 1.83 µM
  TGI: 10.4 µM
MDA-MB-435
  GI50: 2.03 µM
  TGI: 12.9 µM
MALME-3M melanoma
  GI50: 0.284 µM
  TGI: 1.05 µM
HOP-62 NSCLC
  GI50: 2.53 µM
  TGI: 12 µM

## O=[N+]([O-])c1ccc2c(N3CCC(CCCC4CCN(c5ncnc6cc([N+](=O)[O-])ccc56)CC4)CC3)ncnc2c1
HCC-2998 colon
  GI50: > 87.1 µM
  TGI: > 100 µM
OVCAR-4 ovarian
  GI50: 21.5 µM
  TGI: > 100 µM
HT29 colon
  GI50: 21.7 µM
  TGI: > 86.4 µM
SF-539 CNS
  GI50: > 47.9 µM
  TGI: > 100 µM
U251 CNS
  GI50: > 42.2 µM
  TGI: > 100 µM
SK-OV-3 ovarian
  GI50: > 46.3 µM
  TGI: > 100 µM
K-562 leukemia
  GI50: 0.217 µM
  TGI: > 100 µM
SF-295 CNS
  GI50: 5.53 µM
  TGI: > 100 µM
HOP-92 NSCLC
  GI50: 4.89 µM
  TGI: > 76 µM
LOX IMVI melanoma
  GI50: 29.7 µM
  TGI: > 100 µM
MDA-MB-231 breast
  GI50: > 47.1 µM
  TGI: > 100 µM
BT-549 breast
  GI50: 6.33 µM
  TGI: > 70.6 µM
T-47D breast
  GI50: 0.454 µM
  TGI: > 69.3 µM
UACC-62 melanoma
  GI50: > 33.4 µM
  TGI: > 56.9 µM
SK-MEL-2 melanoma
  GI50: > 52.2 µM
  TGI: > 85.3 µM
SF-268 CNS
  GI50: > 53.3 µM
  TGI: > 100 µM
RPMI-8226 leukemia
  GI50: 0.388 µM
  TGI: 96.9 µM
NCI/ADR-RES ovarian
  GI50: 0.658 µM
  TGI: > 100 µM
A498 renal
  GI50: 1.44 µM
  TGI: > 100 µM
TK-10 renal
  GI50: > 58.7 µM
  TGI: > 100 µM
MOLT-4 leukemia
  GI50: 24.8 µM
  TGI: > 100 µM
CCRF-CEM leukemia
  GI50: 44.7 µM
  TGI: > 100 µM
SK-MEL-28 melanoma
  GI50: > 44.7 µM
  TGI: > 100 µM
OVCAR-5 ovarian
  GI50: > 100 µM
  TGI: > 100 µM
IGROV1 ovarian
  GI50: > 62.8 µM
  TGI: > 100 µM
MCF7 breast
  GI50: 0.619 µM
  TGI: > 59.3 µM
SNB-19 CNS
  GI50: > 42.3 µM
  TGI: > 100 µM
HL-60(TB) leukemia
  GI50: 17.8 µM
  TGI: > 100 µM
SR leukemia
  GI50: 2.5 µM
  TGI: > 100 µM
SK-MEL-5 melanoma
  GI50: 0.156 µM
  TGI: 11.8 µM
KM12 colon
  GI50: > 56.7 µM
  TGI: > 100 µM
RXF 393 renal
  GI50: 30.8 µM
  TGI: > 100 µM
UACC-257 melanoma
  GI50: 1.55 µM
  TGI: > 100 µM
OVCAR-3 ovarian
  GI50: 21.6 µM
  TGI: > 100 µM
SN12C renal
  GI50: > 55.9 µM
  TGI: > 100 µM
NCI-H23 lung
  GI50: 2.29 µM
  TGI: > 100 µM
NCI-H460 lung
  GI50: 23.9 µM
  TGI: > 100 µM
HCT-116 colon
  GI50: 0.514 µM
  TGI: 97.6 µM
SNB-75 CNS
  GI50: > 39.6 µM
  TGI: > 71.2 µM
NCI-H522 lung
  GI50: > 45.9 µM
  TGI: > 100 µM
A549 NSCLC
  GI50: 38.1 µM
  TGI: > 100 µM
HCT-15 colon
  GI50: > 50.6 µM
  TGI: > 100 µM
ACHN renal
  GI50: > 48 µM
  TGI: > 100 µM
OVCAR-8 ovarian
  GI50: 1.62 µM
  TGI: > 100 µM
COLO 205 colon
  GI50: 11.5 µM
  TGI: > 100 µM
PC-3 prostate
  GI50: 8.96 µM
  TGI: > 100 µM
UO-31 renal
  GI50: 27.3 µM
  TGI: > 100 µM
M14 melanoma
  GI50: > 49 µM
  TGI: > 100 µM
NCI-H226 lung
  GI50: 9.47 µM
  TGI: > 75.3 µM
786-0 renal
  GI50: > 46 µM
  TGI: > 86.2 µM
HS 578T breast
  GI50: > 46.3 µM
  TGI: > 100 µM
DU-145 prostate
  GI50: > 96.2 µM
  TGI: > 100 µM
CAKI-1 renal
  GI50: 5.29 µM
  TGI: > 100 µM
SW-620 colon
  GI50: > 48 µM
  TGI: > 100 µM
MDA-MB-435
  GI50: > 40.7 µM
  TGI: > 100 µM
MALME-3M melanoma
  GI50: > 59.7 µM
  TGI: > 92.1 µM
HOP-62 NSCLC
  GI50: > 32.2 µM
  TGI: > 100 µM
